Test results: patent US20190352276A1, “INHIBITORS OF BRUTON'S TYROSINE KINASE” (Joint Stock Company "Biocad", priority 2016, published 2019)

Experiments:
EGFR = molecular target: T1, EGFR (Homo sapiens, UniProt P00533); assay: In vitro kinase panel: EGFR; assay type: biochemical; settings: Table 9 kinase panel
T1 construct: purchased SignalChem E10-11G
Description: (§1) The measurements were carried out in a 25 μL reaction volume using a 96-well plate (Corning, #3642). The kinase enzyme and inhibitor were pre-incubated for 10 minutes in the reaction buffer containing 25 mM of MOPS (pH 7.2), 12.5 mM of 0-glycerophosphate, 27 mM of MgCl2, 2 mM of MnCl2, 5 mM of EGTA, 2 mM of EDTA, 0.3 mM of DTT, and 1.2 mg/mL of bovine serum albumin. Staurosporine (Abcam Biochemicals, ab146588) was used as a reference inhibitor and 0.1% DMSO in the reaction buffer—as a negative control. The solution of 0.5 mg/mL peptide substrate and 50 &M ATP in the same buffer were added; the solution was incubated for 180 minutes at 37° C. To detect the amount of ATP taken up during the kinase reaction, the equivalent amount of ADP (from the ADP Glo Detection Kit (Promega, #V9101)) was used according to the protocol. The reaction mixture was equilibrated to room temperature. 25 µL of ADP-Glo Reagent were added into each well; the plate was incubated for 40 minutes. 50 μL of Kinase Detection Reagent were added; the plate was incubated for 30 minutes. The luminescence was measured with multimode plate reader (Tecan Infinite M200Pro, Switzerland). IC50 values were calculated using Magellan 7.2 software (Tecan, Switzerland) approximating experimental points by four-parameter logistic model with the optimization by Levenberg-Marquardt.
(§2) For active compounds selected by screening using the target enzyme BTK, the values of IC50 were determined on a kinase panel: EGFR (SignalChem, #E10-11G), ITK (SignalChem, #I13-10G) and TEC (SignalChem, #T03-10G).

[1] = General cytotoxicity on HepG2 cells (CC50; therapeutic index CC50 HepG2/IC50 Mino); assay type: cell-based; settings: human, HepG2 cells (hepatocellular carcinoma), 72 hours, Alamar Blue
In short: (§3)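 Alamar Blue viability after 72 h exposure to compounds (final 200 μM–4 μM) gave CC50; HepG2 plated 2*10^4/well in DMEM 24 h beforehand. Therapeutic index expressed as ratio of HepG2 CC50 to Mino antiproliferative IC50.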

[2] = system: HepG2 cells (hepatocellular carcinoma); assay: as above; assay type: cell-based; settings: therapeutic index
In short: as §3

ITK = molecular target: T2, ITK (Homo sapiens, UniProt Q08881); assay: In vitro kinase panel: ITK; assay type: biochemical; settings: Table 9 kinase panel
T2 construct: purchased SignalChem I13-10G
T2 sequence (Q08881 1-620): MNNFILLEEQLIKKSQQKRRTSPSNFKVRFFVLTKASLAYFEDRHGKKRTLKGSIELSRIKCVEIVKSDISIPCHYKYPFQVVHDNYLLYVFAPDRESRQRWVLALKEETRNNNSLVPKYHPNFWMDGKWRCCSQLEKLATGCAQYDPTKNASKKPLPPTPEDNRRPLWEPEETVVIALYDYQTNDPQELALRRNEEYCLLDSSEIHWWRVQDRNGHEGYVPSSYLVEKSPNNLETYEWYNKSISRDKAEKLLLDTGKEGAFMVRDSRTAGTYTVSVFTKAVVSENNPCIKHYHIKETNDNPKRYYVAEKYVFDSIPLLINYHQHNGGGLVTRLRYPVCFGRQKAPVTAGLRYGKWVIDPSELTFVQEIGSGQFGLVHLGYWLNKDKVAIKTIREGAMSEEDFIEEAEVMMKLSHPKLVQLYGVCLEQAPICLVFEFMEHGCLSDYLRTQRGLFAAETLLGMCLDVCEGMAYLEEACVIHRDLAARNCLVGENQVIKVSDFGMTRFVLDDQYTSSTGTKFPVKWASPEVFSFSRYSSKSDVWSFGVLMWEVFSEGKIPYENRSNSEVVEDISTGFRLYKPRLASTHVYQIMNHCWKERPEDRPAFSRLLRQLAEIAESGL
Description: as §1, §2

[3] = system: Mino (mantle cell lymphoma); assay: Antiproliferative activity, Mino cells (Alamar Blue); assay type: cell-based; settings: Homo sapiens
In short: (§4)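 Viability is measured with Alamar Blue after the lymphoma cells have spent 72 h with test compounds at 37 °C under 5% CO2. Roughly 3*10^4 cells are seeded per well in serum-supplemented RPMI-1640. Fluorescence is read at 540/590 nm, and IC50 is derived by four-parameter logistic regression.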

[4] = system: Z-138 (mantle cell lymphoma); assay: Antiproliferative activity, Z-138 cells (Alamar Blue); assay type: cell-based; settings: Homo sapiens
In short: as §4

[5] = system: DOHH2 (follicular lymphoma); assay: Antiproliferative activity, DOHH2 cells (Alamar Blue); assay type: cell-based; settings: Homo sapiens, DOHH-2, Table 10, 72 h, average of several tests
In short: as §4

[6] = Table 10, average of several tests
[7] = Table 10, 72 h, average of several tests

T1 sequence (P00533 672-1210 limits assumed): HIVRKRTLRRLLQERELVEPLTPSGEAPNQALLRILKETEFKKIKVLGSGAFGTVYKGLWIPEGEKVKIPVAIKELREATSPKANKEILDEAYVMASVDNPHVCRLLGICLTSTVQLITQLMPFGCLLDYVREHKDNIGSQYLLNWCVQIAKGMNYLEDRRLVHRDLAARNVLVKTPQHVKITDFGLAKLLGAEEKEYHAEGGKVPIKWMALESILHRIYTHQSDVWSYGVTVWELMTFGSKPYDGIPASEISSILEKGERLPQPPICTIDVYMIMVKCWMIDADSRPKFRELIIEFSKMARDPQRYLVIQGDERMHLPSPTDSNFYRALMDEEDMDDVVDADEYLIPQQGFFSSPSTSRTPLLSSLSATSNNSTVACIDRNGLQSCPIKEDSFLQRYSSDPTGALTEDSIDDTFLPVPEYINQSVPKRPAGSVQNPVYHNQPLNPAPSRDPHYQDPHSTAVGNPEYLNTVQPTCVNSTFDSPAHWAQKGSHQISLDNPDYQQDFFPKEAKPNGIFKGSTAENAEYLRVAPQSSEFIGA

| SMILES | IC50 (EGFR) | CC50 at 72 h ([1]; Table 11) | CC50 (HepG2)/IC50 (Mino) ([2]; Table 11) | IC50 (ITK) | IC50 ([3]; Table 11, 72 h) | IC50 ([4]; Table 11, 72 h) | CC50 at 72 h [1, 6] | CC50 (HepG2)/IC50 (Mino) ([2]; Table 10) | IC50 [3, 7] | IC50 [4, 7] | IC50 [5] |
| --- | --- | --- | --- | --- | --- | --- | --- | --- | --- | --- | --- |
| C=CC(=O)N1CCC[C@@H](n2nc(-c3ccc(Oc4ccncc4)cc3)c3cncc(Cl)c32)C1 [BCD-BTK-125, (R)-1-(1-acryloylpiperidin-3-yl)-7-chloro-3-(4-(pyridin-4-yloxy)phenyl)-1H-pyrazolo[4,3-c]pyridine] | > 1 µM | 27.1 µM | 4.18 | > 1 µM | 7.3 µM | 14.6 µM |  |  |  |  |  |
| C=CC(=O)N1CCC[C@@H](n2nc(-c3ccc(Oc4ccncc4)cc3)c3c(N)ncc(Cl)c32)C1 [BCD-BTK-139, (R)-1-(1-acryloylpiperidin-3-yl)-7-chloro-3-(4-(pyridin-4-yloxy)phenyl)-1H-pyrazolo[4,3-c]pyridin-4-amine] | 0.0488 µM | 39.6 µM | 3.88 | 0.2 µM | 10.2 µM | 21.1 µM |  |  |  |  |  |
| C=CC(=O)N1CCC[C@@H](n2nc(-c3ccc(C(=O)Nc4ccccn4)cc3)c3cncc(Cl)c32)C1 [BCD-BTK-201] | 0.172 µM |  |  | > 0.3 µM |  |  | > 50 µM | >4.20 | 11.9 µM | 6.54 µM | 7.97 µM |
| C=CC(=O)N1CCC[C@@H](n2nc(-c3ccc(Oc4ccncc4C#N)cc3)c3cncc(Cl)c32)C1 [BCD-BTK-202, (R)-4-(4-(1-(1-acryloylpiperidin-3-yl)-7-chloro-1H-pyrazolo[4,3-c]pyridin-3-yl)phenoxy)nicotinonitrile] | > 0.5 µM |  |  | > 0.5 µM |  |  | 32 µM | 4.10 | 7.79 µM | 12.6 µM | 8.87 µM |
| C=CC(=O)N1CCC[C@@H](n2nc(-c3ccc(Oc4cccnc4C(N)=O)cc3)c3cncc(Cl)c32)C1 [BCD-BTK-220, 3-(4-{7-chloro-1-[(3R)-1-(prop-2-enoyl)piperidin-3-yl]-1H-pyrazolo[4,3-c]pyridin-3-yl}phenoxy)pyridine-2-carboxamide] | 0.82 µM |  |  | > 0.3 µM |  |  | > 50 µM | >9.51 | 10.5 µM | 14.2 µM | 9.46 µM |
| C=CC(=O)N1CCC[C@@H](n2nc(-c3ccc(Oc4cccnc4C#N)cc3)c3cncc(F)c32)C1 [BCD-BTK-230, (R)-3-(4-(1-(1-acryloylpiperidin-3-yl)-7-fluoro-1H-pyrazolo[4,3-c]pyridin-3-yl)phenoxy)picolinonitrile] | > 0.5 µM |  |  | > 1 µM |  |  | 57.6 µM | 5.87 | 9.81 µM | 14.4 µM | 14.9 µM |
| C=CC(=O)N1CCC[C@@H](n2nc(-c3ccc(C(=O)Nc4ccccn4)cc3)c3c(N)ncc(C#N)c32)C1 [BCD-BTK-234, (R)-4-(1-(1-acryloylpiperidin-3-yl)-4-amino-7-cyano-1H-pyrazolo[4,3-c]pyridin-3-yl)-N-(pyridine-2-yl)benzamide] | 0.0018 µM |  |  | 0.0254 µM |  |  | 36.6 µM | 3.81 | 9.6 µM | 16.8 µM | 8.87 µM |
| C=CC(=O)N1CCC[C@@H](n2nc(-c3ccc(Oc4ccncc4)cc3)c3c(N)ncc(OC)c32)C1 [BCD-BTK-239, (R)-1-(1-acryloylpiperidin-3-yl)-4-amine-7-methoxy-3-(4-(pyridin-4-yloxy)phenyl)-1H-pyrazolo[4,3-c]pyridine] | 0.0105 µM |  |  | 0.0249 µM |  |  | 60.2 µM | 4.24 | 14.2 µM | 16 µM | 8.18 µM |
| C=CC(=O)N1CCC[C@@H](n2nc(-c3ccc(C(=O)Nc4ccccn4)cc3)c3c(N)ncc(OC)c32)C1 [BCD-BTK-240, (R)-4-(1-(1-acryloylpiperidin-3-yl)-4-amino-7-methoxy-1H-pyrazolo[4,3-c]pyridin-3-yl)-N-(pyridin-2-yl)benzamide] | 0.00241 µM |  |  | 0.00778 µM |  |  | > 100 µM | >7.11 | 14.1 µM | 10.5 µM | 2 µM |
| C=CC(=O)N1CCC[C@@H](n2nc(-c3ccc(C(=O)Nc4ccccn4)cc3)c3c(N)nccc32)C1 [BCD-BTK-242, (R)-4-(1-(1-acryloylpiperidin-3-yl)-4-amino-1H-pyrazolo[4,3-c]pyridin-3-yl)-N-(pyridin-2-yl)benzamide] | 0.00132 µM |  |  | 0.011 µM |  |  | 52.5 µM | 3.03 | 17.3 µM | 16.5 µM | 8.38 µM |
| C=CC(=O)N1CCC[C@@H](n2nc(-c3ccc(C(=O)Nc4cc(C(F)(F)F)ccn4)cc3)c3c(N)ncc(Cl)c32)C1 [BCD-BTK-251, (R)-4-(1-(1-acryloylpiperidin-3-yl)-4-amino-7-chloro-1H-pyrazolo[4,3-c]pyridin-3-yl)-N-(4-(trifluoromethyl)pyridin-2-yl)benzamide] | 0.00883 µM |  |  | 0.0101 µM |  |  | > 50 µM | >13.70 | 3.65 µM | 4.46 µM | 3.38 µM |
| C=CC(=O)N1CCC[C@@H](n2nc(-c3ccc(C(=O)Nc4cc(C(F)(F)CCC)ccn4)cc3)c3cncc(Cl)c32)C1 [BCD-BTK-252, (R)-4-(1-(1-acryloylpiperidin-3-yl)-7-chloro-1H-pyrazolo[4,3-c]pyridin-3-yl)-N-(4-(1,1-difluorobutyl)pyridin-2-yl)benzamide] | > 0.5 µM |  |  | > 1 µM |  |  | > 100 µM | >22.43 | 4.46 µM | 14.9 µM | 19.6 µM |
| C=CC(=O)N1CCC[C@@H](n2nc(-c3ccc(C(=O)Nc4ncccc4F)cc3)c3c(N)ncc(C#N)c32)C1 [BCD-BTK-258, 4-{4-amino-7-cyano-1-[(3R)-1-(prop-2-enoyl)piperidin-3-yl]-1H-pyrazolo[4,3-c]pyridin-3-yl}-N-(3-fluoropyridin-2-yl)benzamide] | 0.0186 µM |  |  | 0.0333 µM |  |  | > 50 µM | >2.89 | 17.3 µM | 35.8 µM | 15.1 µM |
| C=CC(=O)N1CCC[C@@H](n2nc(-c3cnc(C(=O)Nc4cc(C(F)(F)CCC)ccn4)nc3)c3cncc(Cl)c32)C1 [BCD-BTK-292, (R)-5-(1-(1-acryloylpiperidin-3-yl)-7-chloro-1H-pyrazolo[4,3-c]pyridin-3-yl)-N-(4-(1,1-difluorobutyl)pyridin-2-yl)pyrimidine-2-carboxamide] | > 0.5 µM |  |  | 0.0635 µM |  |  | > 100 µM | >29.81 | 3.35 µM | > 50 µM | 20.7 µM |
